Reference: PubChem BioAssay AID1845217 (Molecular Pharmacology Branch, DTP, NCI, 2023)

System: VA-ES-BJ tumor spheroid viability
Test: Anticancer human tumor VA-ES-BJ cell line growth inhibition;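 also: spheroids exposed to compounds for seven days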;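 as to viability, T/C: percent of DMSO vehicle control viability so 100% = untreated growth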
Conditions: spheroids with HUVEC and MSC; for IC50: curve of first compound; for viability, T/C: stronger effect = lower value
In short: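 Complex tumor spheroids combined malignant cells with endothelial cells and mesenchymal stem cells. DNA-damaging drugs and DNA repair inhibitors were tested alone and in combination, at half-log dilutions down from clinical Cmax (top 10 microM if Cmax unknown), 0.25% DMSO final.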

Work on `Cn1ncnc1[C@H]1c2n[nH]c(=O)c3cc(F)cc(c23)N[C@@H]1c1ccc(F)cc1` + COc1cc2c(cc1O)CCNC21CSC2c3c(OC(C)=O)c(C)c4c(c3C(COC1=O)N1C(O)C3Cc5cc(C)c(OC)c(O)c5C(C21)N3C)OCO4 yielded an IC50 (second compound 30 pM) of 329 nM, an IC50 (second compound 94.9 pM) of 155 nM and an IC50 (second compound 0.0003 µM) of under 9.49 nM. The IC50 (second compound 0.000949 µM) was under 9.49 nM, the IC50 (second compound 0.003 µM) was under 9.49 nM and the viability, T/C (second compound 30 pM, first compound 0.00949 µM) was 92.8%. For the same compound, the viability, T/C (second compound 30 pM, first compound 0.03 µM) was 79.3%, the viability, T/C (second compound 30 pM, first compound 0.0949 µM) was 67.9% and the viability, T/C (second compound 30 pM, first compound 0.3 µM) was 54.9%. For the same compound, the viability, T/C (second compound 30 pM, first compound 0.949 µM) was 29.8%, the viability, T/C (second compound 30 pM, first compound 3 µM) was 6.51% and the viability, T/C (second compound 94.9 pM, first compound 0.00949 µM) was 67.8%. It also gave a viability, T/C (second compound 94.9 pM, first compound 0.03 µM) of 70.4%, a viability, T/C (second compound 94.9 pM, first compound 0.0949 µM) of 52.8% and a viability, T/C (second compound 94.9 pM, first compound 0.3 µM) of 42.1%. For the same compound, the viability, T/C (second compound 94.9 pM, first compound 0.949 µM) was 24%, the viability, T/C (second compound 94.9 pM, first compound 3 µM) was 6.18% and the viability, T/C (second compound 0.0003 µM, first compound 0.00949 µM) was 33.9%. For the same compound, the viability, T/C (second compound 0.0003 µM, first compound 0.03 µM) was 29.3%, the viability, T/C (second compound 0.0003 µM, first compound 0.0949 µM) was 23.9% and the viability, T/C (second compound 0.0003 µM, first compound 0.3 µM) was 19.7%. For the same compound, the viability, T/C (second compound 0.0003 µM, first compound 0.949 µM) was 8.26%, the viability, T/C (second compound 0.0003 µM, first compound 3 µM) was 4.82% and the viability, T/C (second compound 0.000949 µM, first compound 0.00949 µM) was 3.64%. It also gave a viability, T/C (second compound 0.000949 µM, first compound 0.03 µM) of 3.04%, a viability, T/C (second compound 0.000949 µM, first compound 0.0949 µM) of 2.49% and a viability, T/C (second compound 0.000949 µM, first compound 0.3 µM) of 3.23%. It also gave a viability, T/C (second compound 0.000949 µM, first compound 0.949 µM) of 1.4%, a viability, T/C (second compound 0.000949 µM, first compound 3 µM) of 0.45% and a viability, T/C (second compound 0.003 µM, first compound 0.00949 µM) of 1.48%. It also gave a viability, T/C (second compound 0.003 µM, first compound 0.03 µM) of 1.15%, a viability, T/C (second compound 0.003 µM, first compound 0.0949 µM) of 1.53% and a viability, T/C (second compound 0.003 µM, first compound 0.3 µM) of 2.52%. For the same compound, the viability, T/C (second compound 0.003 µM, first compound 0.949 µM) was 1.19% and the viability, T/C (second compound 0.003 µM, first compound 3 µM) was 2.91%.
